The results in this text go back to ChEMBL document CHEMBL1128360 (J Med Chem, 1995).

The assay has as its target T1, 5-hydroxytryptamine receptor 1A (Rattus norvegicus, UniProt P19327).
T1 sequence (P19327 whole entry): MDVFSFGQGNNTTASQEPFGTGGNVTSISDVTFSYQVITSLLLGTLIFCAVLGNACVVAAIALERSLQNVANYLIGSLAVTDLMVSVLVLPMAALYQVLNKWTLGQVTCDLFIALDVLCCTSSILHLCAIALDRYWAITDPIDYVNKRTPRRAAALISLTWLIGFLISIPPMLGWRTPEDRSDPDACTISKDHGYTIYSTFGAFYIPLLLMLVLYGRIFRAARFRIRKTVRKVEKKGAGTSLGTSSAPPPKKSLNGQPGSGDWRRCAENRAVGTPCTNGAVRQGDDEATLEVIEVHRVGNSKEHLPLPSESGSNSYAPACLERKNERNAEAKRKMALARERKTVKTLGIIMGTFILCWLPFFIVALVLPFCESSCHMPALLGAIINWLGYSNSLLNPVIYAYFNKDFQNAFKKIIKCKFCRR
Kind of assay: Inhibitory affinity constant against 5-hydroxytryptamine 1A receptor.

In the case of `CC1(C)CC(=O)N(CCCCN2CCN(c3ccc4ccccc4n3)CC2)C(=O)C1`, the inhibitory constant (Ki) was 10.5 nM.

Broadly, the Ki is the dissociation constant of the complex between target and ligand, obtained from inhibition or displacement.
